We go through 14 compounds from ChEMBL document CHEMBL4619727, “Induced osteoblast differentiation by amide derivatives of stilbene: The possible osteogenic agents” (Bioorg Med Chem Lett, 2020).

Activity calls are given as the source filed them. The rule behind the calls is not given here.

One series relates to MCF7. The experiment in a line: Cytotoxicity against human MCF7 cells assessed as cell growth inhibition at 30 ug/ml by MTT assay relative to control. Conditions: read-out: GI. Type of series: functional. On the technique in general: Tetrazolium assays rely on reduction of a dye to a coloured formazan, in cell work by metabolically active cells.
Series [1] addresses Estrogen receptor beta (Mus musculus) (UniProt O08537). Description: Induction of ESR2-mediated osteoblast differentiation in mouse calvarial osteoblast assessed as increase in ALP activity at 1 pM measured after 48 hrs by spectrophotometric analysis. Type of series: cell-based.
The test system of series [2] is Calvarial osteoblast. The experiment in a line: Osteo-blastogenic activity in mouse calvarial osteoblast assessed as upregulation of BMP2 mRNA expression at 1 pM to 100 pM measured after 48 hrs by qPCR analysis. Type of series: functional, cell-based. Background: Quantitative PCR measures a nucleic acid by following its amplification.
The test system of series [3] is Calvarial osteoblast. The experiment in a line: Upregulation of ALP mRNA expression in mouse calvarial osteoblast at 1 pM to 100 pM measured after 24 to 48 hrs by qPCR analysis. It is filed as functional, cell-based.
In series [4] the test system is Calvarial osteoblast. The experiment in a line: Osteo-blastogenic activity in mouse calvarial osteoblast assessed as upregulation of Runx2 mRNA expression at 1 pM to 100 pM measured after 48 hrs by qPCR analysis. Type of series: functional, cell-based.
Series [5] concerns the target Estrogen receptor beta (Mus musculus) (UniProt O08537). The experiment in a line: Induction of ESR2-mediated osteoblast differentiation in mouse calvarial osteoblast assessed as formation of mineralized nodule at 1 to 10 uM measured after 21 days by alizarin red staining based assay. It is filed as cell-based.
The subject of series [6] is Mus musculus. The experiment in a line: Anti-osteoporosis activity in ovariectomized BALB/c mouse assessed as increase in femur bone volume density at 1 to 5 mg/kg, po via gavage administered for 1 month by microCT imaging analysis. Type of series: functional, organism-based.
The test system of series [7] is Mus musculus. Description: Anti-osteoporosis activity in ovariectomized BALB/c mouse assessed as increase in trabecular number in femur bone at 1 to 5 mg/kg, po via gavage administered for 1 month by microCT imaging analysis. Type of series: functional, organism-based.
Series [8] concerns Mus musculus. Description: Anti-osteoporosis activity in ovariectomized BALB/c mouse assessed as increase in trabecular thickness in femur bone at 1 to 5 mg/kg, po via gavage administered for 1 month by microCT imaging analysis. It is filed as functional, organism-based.
Series [9] relates to Mus musculus. The experiment in a line: Anti-osteoporosis activity in ovariectomized BALB/c mouse assessed as reduction in trabecular spacing in femur bone at 1 to 5 mg/kg, po via gavage administered for 1 month by microCT imaging analysis. It is filed as functional, organism-based.
Series [10] has as its system Mus musculus. The experiment in a line: Anti-osteoporosis activity in ovariectomized BALB/c mouse assessed as reduction in trabecular pattern factor in femur bone at 1 to 5 mg/kg, po via gavage administered for 1 month by microCT imaging analysis. It is filed as functional, organism-based.
In series [11] the test system is Mus musculus. Description: Anti-osteoporosis activity in ovariectomized BALB/c mouse at 5 mg/kg, po via gavage administered for 1 month by microCT imaging analysis. Type of series: functional, organism-based.
Series [12] relates to Calvarial osteoblast. Description: Upregulation of ESR1 protein level in mouse calvarial osteoblast at 1 to 100 pM measured after 48 hrs by Western blot analysis. Type of series: functional, cell-based.
For series [13], the system named is Calvarial osteoblast. The experiment in a line: Upregulation of ESR2 protein level in mouse calvarial osteoblast at 1 to 100 pM measured after 48 hrs by Western blot analysis. Type of series: functional, cell-based. Background: Immunoblotting shows a protein as a band on a membrane.
The test system of series [14] is Peritoneal macrophage cell. The experiment in a line: Cytotoxicity against peritoneal macrophage cells (unknown origin) at 5 to 20 uM by MTT assay. Type of series: cell-based.
The target of series [15] is Estrogen receptor beta (Mus musculus) (UniProt O08537). The experiment in a line: Induction of ESR2-mediated osteoblast differentiation in mouse calvarial osteoblast assessed as increase in ALP activity at 100 pM measured after 48 hrs by spectrophotometric analysis. Type of series: cell-based.
Chain of Estrogen receptor beta (Mus musculus) (O08537 whole entry): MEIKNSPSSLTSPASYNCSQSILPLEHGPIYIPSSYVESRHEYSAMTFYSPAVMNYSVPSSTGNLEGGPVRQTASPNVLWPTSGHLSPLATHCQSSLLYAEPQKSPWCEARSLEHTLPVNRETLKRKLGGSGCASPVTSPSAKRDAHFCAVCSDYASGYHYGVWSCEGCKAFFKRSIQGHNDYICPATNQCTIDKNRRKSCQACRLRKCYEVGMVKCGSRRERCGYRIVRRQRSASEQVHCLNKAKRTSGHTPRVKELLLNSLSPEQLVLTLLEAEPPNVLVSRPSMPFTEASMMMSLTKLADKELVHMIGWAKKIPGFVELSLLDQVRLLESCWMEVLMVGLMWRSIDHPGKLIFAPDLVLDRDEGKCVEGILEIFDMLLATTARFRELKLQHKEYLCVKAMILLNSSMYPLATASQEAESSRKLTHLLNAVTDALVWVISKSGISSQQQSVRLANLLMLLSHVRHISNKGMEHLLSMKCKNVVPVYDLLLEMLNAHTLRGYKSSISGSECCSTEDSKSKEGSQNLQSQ
For series [16], the system named is Mus musculus. Description: Anti-osteoporosis activity in ovariectomized BALB/c mouse assessed as increase in femur bone volume density at 1 mg/kg, po via gavage administered for 1 month by microCT imaging analysis. Type of series: functional, organism-based.
Series [17] concerns Mus musculus. Description: Anti-osteoporosis activity in ovariectomized BALB/c mouse assessed as increase in trabecular number in femur bone at 1 mg/kg, po via gavage administered for 1 month by microCT imaging analysis. Type of series: functional, organism-based.
In series [18] the test system is Mus musculus. Description: Anti-osteoporosis activity in ovariectomized BALB/c mouse assessed as increase in trabecular thickness in femur bone at 1 mg/kg, po via gavage administered for 1 month by microCT imaging analysis. It is filed as functional, organism-based.
Series [19] deals with Mus musculus. The experiment in a line: Anti-osteoporosis activity in ovariectomized BALB/c mouse assessed as reduction in trabecular spacing in femur bone at 1 mg/kg, po via gavage administered for 1 month by microCT imaging analysis. Type of series: functional, organism-based.
Series [20] has as its system Mus musculus. Description: Anti-osteoporosis activity in ovariectomized BALB/c mouse assessed as reduction in trabecular pattern factor in femur bone at 1 mg/kg, po via gavage administered for 1 month by microCT imaging analysis. Type of series: functional, organism-based.
Series [21] deals with Estrogen receptor beta (Mus musculus) (UniProt O08537). The experiment in a line: Induction of ESR2-mediated osteoblast differentiation in mouse calvarial osteoblast assessed as increase in ALP activity at 1 nM measured after 48 hrs by spectrophotometric analysis. Type of series: cell-based.

In the case of `COc1ccc(/C(C)=C(\CCCC(=O)N2CCCC2)c2ccccc2)cc1`, the inhibition of growth at 30 µg/mL with MCF7 was 48.4%.

For `CCCCN(C)C(=O)CCC/C(=C(/C)c1ccc(OC)cc1)c1ccccc1`, the result in series [1] was Active.

Turning to `CCCCN(C)C(=O)CCCCC/C(=C(/C)c1ccc(OC)cc1)c1ccccc1`, the outcome (in the series with Calvarial osteoblast [2]; in series [1]; in the series with Calvarial osteoblast [3]; in the series with Calvarial osteoblast [4]; in series [5]; with Mus musculus [6]) was Active. Further, the result with Mus musculus [7], in the series on Mus musculus [8], in the series on Mus musculus [9], in the series on Mus musculus [10], in the series on Mus musculus [11] and in the series with Calvarial osteoblast [12] was Active. Further, the outcome in the series with Calvarial osteoblast [13] was Active. In the series with MCF7, the inhibition of growth at 30 µg/mL is 32.1%. Further, the Activity result in [14] is on record as “Non-Toxic”.

For the compound `COc1ccc(/C(C)=C(\CCCC(=O)NCCc2ccccn2)c2ccccc2)cc1`, the outcome in series [15] was Active.

With `O=C(c1ccc(OCCN2CCCCC2)cc1)c1c(-c2ccc(O)cc2)sc2cc(O)ccc12`, the result in the series on Mus musculus [16], in the series with Mus musculus [17], in the series on Mus musculus [18], with Mus musculus [19] and in the series on Mus musculus [20] was Active.

In the case of `COc1ccc(/C(=C/c2ccccc2)CC(=O)NCCc2ccccn2)cc1`, in the series with MCF7, the inhibition of growth at 30 µg/mL lay in the range of 30 to 48%.

As to `COc1ccc(/C(C)=C(\CCCCCC(=O)NCc2ccccn2)c2ccccc2)cc1`, the inhibition of growth at 30 µg/mL with MCF7 lay within 30 to 48%.

`COc1ccc(/C(C)=C(\CCCCCC(=O)NCCc2ccccn2)c2ccccc2)cc1`: the inhibition of growth at 30 µg/mL in the series on MCF7 lay in the range of 30 to 48%.

For the compound `COc1ccc(/C(=C/c2ccccc2)CC(=O)N(C(C)C)C(C)C)cc1`, the outcome in series [21] was Active.

`COc1ccc(/C(=C/c2ccccc2)CC(=O)N2CCCC2)cc1`: the inhibition of growth at 30 µg/mL in the series on MCF7 lay in the range of 30 to 48%.

In the case of `CCCCCN(C)C(=O)C/C(=C\c1ccccc1)c1ccc(OC)cc1`, the outcome in series [1] was Active. The inhibition of growth at 30 µg/mL with MCF7 was 30 to 48%.

Consider `COc1ccc(/C(C)=C(\CCCCCC(=O)N2CCCC2)c2ccccc2)cc1`, for which the result in series [1] was Active. Further, in the series with MCF7, the inhibition of growth at 30 µg/mL was 30 to 48%.

For the compound `COc1ccc(/C(=C/c2ccccc2)CC(=O)NC(C)C)cc1`, the inhibition of growth at 30 µg/mL in the series on MCF7 was 30 to 48%.

For the compound `COc1ccc(/C(C)=C(\CCCC(=O)NCc2ccccn2)c2ccccc2)cc1`, the inhibition of growth at 30 µg/mL with MCF7 lay within 30 to 48%.
